Among the test systems are DU-145 prostate; K-562 leukemia; MALME-3M melanoma; HCT-116 colon; HS 578T breast; HOP-92 NSCLC; CAKI-1 renal; COLO 205 colon; T-47D breast; A549 NSCLC; MDA-N; MDA-MB-231 breast; SF-268 CNS; LOX IMVI melanoma; RXF 393 renal; EKVX NSCLC; BT-549 breast.
What all share (experiment): inhibition of tumour cell growth, NCI panel, 48 h

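Five concentrations, 48 hours, 96-well plates. TGI denotes the concentration required for complete inhibition of growth.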

Turning to `C#Cc1cc(Br)c(OC(=O)C(C)(C)C)c(-c2cc(C#C)cc(Br)c2OC(=O)C(C)(C)C)c1`, the TGI with DU-145 prostate, in the assay with K-562 leukemia, in the assay on MALME-3M melanoma, with HCT-116 colon, in the assay on HS 578T breast and with HOP-92 NSCLC was greater than 100 µM each time. The TGI with CAKI-1 renal, in the assay on COLO 205 colon, in the assay with T-47D breast, in the assay with A549 NSCLC, in the assay on MDA-N and in the assay with MDA-MB-231 breast was greater than 100 µM each time. In addition, the TGI with SF-268 CNS was greater than 100 µM; in the assay on LOX IMVI melanoma it was 49.1 µM; in the assay on RXF 393 renal it was 46.7 µM; in the assay on EKVX NSCLC, greater than 100 µM; in the assay with BT-549 breast, greater than 100 µM.
Take `O=c1[nH]nc(-c2ccccc2)n1/N=C/c1ccccc1Cl`: the TGI in the assay with DU-145 prostate was greater than 100 µM; in the assay on K-562 leukemia, greater than 100 µM; in the assay with MALME-3M melanoma, 86.4 µM; with HCT-116 colon it was greater than 100 µM; with HS 578T breast it was greater than 100 µM; in the assay on HOP-92 NSCLC, greater than 100 µM. Besides, the TGI in the assay with CAKI-1 renal, in the assay on COLO 205 colon, in the assay on T-47D breast, with A549 NSCLC, with MDA-N and in the assay with MDA-MB-231 breast was greater than 100 µM each time. In addition, the TGI was greater than 100 µM with SF-268 CNS; greater than 100 µM with LOX IMVI melanoma; 67.4 µM in the assay with RXF 393 renal; greater than 100 µM in the assay with EKVX NSCLC; greater than 100 µM in the assay on BT-549 breast.
Regarding `Cc1ccnc2[nH]c(-c3ccc(F)cc3)cc(=O)c12`, the TGI in the assay on DU-145 prostate, in the assay on K-562 leukemia, in the assay on MALME-3M melanoma, in the assay with HCT-116 colon, with HS 578T breast and in the assay with HOP-92 NSCLC was greater than 100 µM throughout. Further, the TGI was greater than 100 µM with CAKI-1 renal; greater than 76.8 µM in the assay with COLO 205 colon; greater than 100 µM in the assay on T-47D breast; greater than 100 µM with A549 NSCLC; greater than 53.9 µM in the assay on MDA-N; greater than 100 µM with MDA-MB-231 breast. For the same compound, the TGI with SF-268 CNS, with LOX IMVI melanoma, in the assay on RXF 393 renal, in the assay on EKVX NSCLC and with BT-549 breast was greater than 100 µM throughout.
Consider `COC(=O)[C@H]1COC(=O)N1`, for which the TGI in the assay on DU-145 prostate, in the assay on K-562 leukemia, in the assay with MALME-3M melanoma, in the assay on HCT-116 colon, in the assay with HS 578T breast and in the assay with HOP-92 NSCLC was greater than 100 µM throughout. The TGI in the assay on CAKI-1 renal, with COLO 205 colon, with T-47D breast, in the assay on A549 NSCLC, in the assay on MDA-N and in the assay with MDA-MB-231 breast was greater than 100 µM in each case. In addition, the TGI in the assay with SF-268 CNS, in the assay on LOX IMVI melanoma, in the assay with RXF 393 renal, with EKVX NSCLC and with BT-549 breast was greater than 100 µM throughout.
As for `COc1cc(/C=C\c2nnc(/C=C\c3ccc(O)c(OC)c3)s2)ccc1O`, the TGI was 8.26 µM in the assay on DU-145 prostate; greater than 21.2 µM in the assay on K-562 leukemia; 24 µM with MALME-3M melanoma; 14 µM in the assay with HCT-116 colon; greater than 37.8 µM in the assay on HS 578T breast; 42.2 µM with HOP-92 NSCLC. The TGI in the assay with CAKI-1 renal was 44.2 µM; with COLO 205 colon it was 41.4 µM; in the assay with T-47D breast, 7.38 µM; in the assay on A549 NSCLC, greater than 54.7 µM; in the assay on MDA-N, 16.4 µM; with MDA-MB-231 breast, greater than 57.5 µM. For the same compound, the TGI in the assay on SF-268 CNS worked out at 41.2 µM; in the assay with LOX IMVI melanoma, 22.4 µM; in the assay with RXF 393 renal, 4.75 µM; in the assay with EKVX NSCLC it was 18.4 µM; in the assay on BT-549 breast, 11.1 µM.
In the case of `CSc1nc(C)c(CCOC(C)=O)c(Cl)n1`, the TGI with DU-145 prostate, in the assay on K-562 leukemia, with MALME-3M melanoma, in the assay on HCT-116 colon, in the assay on HS 578T breast and in the assay on HOP-92 NSCLC was greater than 100 µM each time. Moreover, the TGI in the assay on CAKI-1 renal, in the assay on COLO 205 colon, in the assay with T-47D breast, with A549 NSCLC, with MDA-N and in the assay with MDA-MB-231 breast was greater than 100 µM in each case. The TGI in the assay on SF-268 CNS, in the assay on LOX IMVI melanoma, with RXF 393 renal, with EKVX NSCLC and with BT-549 breast was greater than 100 µM in each case.
On to `CCCCCCCCCCCCCCCCCCNc1nc(=O)n(C2CC(O)C(COP(=O)(O)OCC3OC(n4ccc(N)nc4=O)C(O)C3O)O2)cc1F` (centres undefined), for which the TGI with DU-145 prostate, in the assay with K-562 leukemia, with MALME-3M melanoma, in the assay with HCT-116 colon, in the assay on HS 578T breast and with HOP-92 NSCLC was greater than 100 µM throughout. Besides, the TGI in the assay with CAKI-1 renal is greater than 100 µM; in the assay with COLO 205 colon, greater than 100 µM; in the assay on T-47D breast it was greater than 100 µM; with A549 NSCLC it was greater than 100 µM; with MDA-N, greater than 100 µM; in the assay on MDA-MB-231 breast it was 72.5 µM. For the same compound, the TGI is greater than 100 µM in the assay with SF-268 CNS; 22.3 µM in the assay on LOX IMVI melanoma; greater than 100 µM in the assay on RXF 393 renal; greater than 100 µM in the assay on EKVX NSCLC; greater than 100 µM in the assay with BT-549 breast.

The values are drawn from PubChem BioAssay (NCI).
